Like-named read-outs stand apart in the source and are kept apart here.
Legend:
Assay type in all cases: biochemical
Pim3 kinase = Pim3 kinase (Homo sapiens, UniProt Q86V86); test: Pim3 ATP depletion assay; conditions: read-out: PIM3 IC50
Pim1 kinase = Pim1 kinase (Homo sapiens, UniProt P11309); test: Pim1 ATP depletion assay;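 also: Luciferase-luciferin luminescence readout of residual ATP after PIM1 transfers phosphate to a peptide substrate, 40 µM ATP added, reaction run to roughly half ATP consumption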
Pim2 kinase = Pim2 kinase (Homo sapiens, UniProt Q9P1W9); test: Pim2 ATP depletion assay; conditions: read-out: PIM2 IC50;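 also: Luciferase-based luminescent readout of ATP remaining after PIM2 phosphorylates a BAD peptide, final 5 nM enzyme, 4 µM ATP, 10 µM peptide, 2.5% DMSO, run to roughly half ATP consumption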
[1] = Pim1 ATP depletion assay, read-out: PIM1 IC50

Sequence of Pim2 kinase (Q9P1W9 whole entry): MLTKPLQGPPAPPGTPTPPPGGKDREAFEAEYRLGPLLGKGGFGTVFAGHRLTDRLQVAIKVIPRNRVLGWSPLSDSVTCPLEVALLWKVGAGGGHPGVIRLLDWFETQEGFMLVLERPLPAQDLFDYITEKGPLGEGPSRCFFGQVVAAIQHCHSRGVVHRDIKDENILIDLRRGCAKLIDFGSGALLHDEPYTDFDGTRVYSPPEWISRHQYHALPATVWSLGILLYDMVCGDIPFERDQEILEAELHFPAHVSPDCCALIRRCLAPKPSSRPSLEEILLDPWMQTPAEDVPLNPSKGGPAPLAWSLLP
Sequence of Pim1 kinase (P11309 whole entry): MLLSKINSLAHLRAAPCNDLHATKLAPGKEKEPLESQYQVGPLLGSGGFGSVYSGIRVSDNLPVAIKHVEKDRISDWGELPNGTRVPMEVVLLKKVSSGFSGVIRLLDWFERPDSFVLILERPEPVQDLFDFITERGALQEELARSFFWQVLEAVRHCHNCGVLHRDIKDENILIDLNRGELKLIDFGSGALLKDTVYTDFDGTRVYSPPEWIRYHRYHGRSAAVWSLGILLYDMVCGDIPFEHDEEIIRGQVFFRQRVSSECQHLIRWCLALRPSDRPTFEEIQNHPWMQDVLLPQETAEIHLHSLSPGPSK

SMILES	IC50 (Pim3 kinase) [nM]	IC50 (Pim1 kinase; [1]) [nM]	IC50 (Pim2 kinase) [nM]	IC50 (Pim1 kinase) [nM]
Nc1ccc(-c2cc(C(F)(F)F)ccn2)nc1C(=O)Nc1cnccc1N1CCC[C@H](N)C1 [Example 715, 5-Amino-4′-trifluoromethyl-[2,2′]bipyridinyl-6-carboxylic acid (3-amino-3,4,5,6-tetra-hydro-2H-[1,4′]bipyridinyl-3′-yl)-amide]	< 1000	< 1000	< 1000	–
Nc1ccc(-c2cccc(C(F)(F)F)n2)nc1C(=O)Nc1cnccc1N1CCC[C@H](N)C1 [Example 718, 5-Amino-6′-trifluoromethyl-[2,2′]bipyridinyl-6-carboxylic acid (3-amino-3,4,5,6-tetra-hydro-2H-[1,4′]bipyridinyl-3′-yl)-amide]	< 1000	< 1000	< 1000	–
Nc1ccc(-c2ncc(C(F)(F)F)cc2Cl)nc1C(=O)Nc1cnccc1N1CCC[C@H](N)C1 [Example 720, 5-Amino-3′-chloro-5′-trifluoro-methyl-[2,2′]bipyridinyl-6-carboxylic acid (3-amino-3,4,5,6-tetrahydro-2H-[1,4′]bi-pyridinyl-3′-yl)-amide]	< 1000	< 1000	< 1000	–
Nc1ccc(-c2ncccc2C(F)(F)F)nc1C(=O)Nc1cnccc1N1CCC[C@H](N)C1 [Example 721, 5-Amino-3′-trifluoromethyl-[2,2′]bipyridinyl-6-carboxylic acid (3-amino-3,4,5,6-tetra-hydro-2H-[1,4′]bipyridinyl-3′-yl)-amide]	< 1000	< 1000	< 1000	–
Cc1ccnc(-c2ccc(N)c(C(=O)Nc3cnccc3N3CCC[C@H](N)C3)n2)c1 [Example 724, 5-Amino-4′-methyl-[2,2′]bi-pyridinyl-6-carboxylic acid (3-amino-3,4,5,6-tetrahydro-2H-[1,4′]bipyridinyl-3′-yl)-amide]	< 1000	< 1000	< 1000	–
Cc1ccc(-c2ccc(N)c(C(=O)Nc3cnccc3N3CCC[C@H](N)C3)n2)nc1 [Example 725, 5-Amino-5′-methyl-[2,2′]bi-pyridinyl-6-carboxylic acid (3-amino-3,4,5,6-tetrahydro-2H-[1,4′]bipyridinyl-3′-yl)-amide]	< 1000	< 1000	< 1000	–
Cc1cccc(-c2ccc(N)c(C(=O)Nc3cnccc3N3CCC[C@H](N)C3)n2)n1 [Example 726, 5-Amino-6′-methyl-[2,2′]bi-pyridinyl-6-carboxylic acid (3-amino-3,4,5,6-tetrahydro-2H-[1,4′]bipyridinyl-3′-yl)-amide]	< 1000	< 1000	< 1000	–
Nc1nccc(-c2ccc(N)c(C(=O)Nc3cnccc3N3CCC[C@H](N)C3)n2)n1 [Example 728, 3-Amino-6-(2-amino-pyrimidin-4-yl)-pyridine-2-carboxylic acid (3-amino-3,4,5,6-tetrahydro-2H-[1,4′]bipyridinyl-3′-yl)-amide]	< 1000	–	< 1000	< 1000
Nc1cnc(-c2ccc(N)c(C(=O)Nc3cnccc3N3CCC[C@H](N)C3)n2)cn1 [Example 729, 3-Amino-6-(5-amino-pyrazin-2-yl)-pyridine-2-carboxylic acid (3-amino-3,4,5,6-tetrahydro-2H-[1,4′]bipyridinyl-3′-yl)-amide]	< 1000	< 1000	< 1000	–
Nc1ccc(-c2ccccn2)nc1C(=O)Nc1cnccc1N1CCC[C@H](N)C1 [Example 730, 5-Amino-[2,2′]bipyridinyl-6-carboxylic acid (3-amino-3,4,5,6-tetrahydro-2H-[1,4′]bi-pyridinyl-3′-yl)-amide]	< 1000	< 1000	< 1000	–
COc1nc(-c2ccc(N)c(C(=O)Nc3cnccc3N3CCC[C@H](N)C3)n2)cnc1N [Example 731, 3-Amino-6-(5-amino-6-methoxy-pyrazin-2-yl)-pyridine-2-carboxylic acid (3-amino-3,4,5,6-tetrahydro-2H-[1,4′]bi-pyridinyl-3′-yl)-amide]	< 1000	< 1000	< 1000	–
Nc1ccc(-c2ncccc2F)nc1C(=O)Nc1cnccc1N1CCC(N)C(O)C1 (stereo not drawn) [Example 734, 5-Amino-3′-fluoro-[2,2′]bi-pyridinyl-6-carboxylic acid (4-amino-3-hydroxy-3,4,5,6-tetra-hydro-2H-[1,4′]bipyridinyl-3′-yl)-amide]	< 1000	< 1000	< 1000	–
CCCOc1cncc(-c2nc(C(=O)Nc3cnccc3N3CCC[C@H](N)C3)c(N)cc2F)n1 [Example 738, 3-Amino-5-fluoro-6-(6-propoxy-pyrazin-2-yl)-pyridine-2-carboxylic acid (3-amino-3,4,5,6-tetrahydro-2H-[1,4′]bi-pyridinyl-3′-yl)-amide]	< 1000	< 1000	< 1000	–
CC(C)COc1cncc(-c2nc(C(=O)Nc3cnccc3N3CCC[C@H](N)C3)c(N)cc2F)n1 [Example 741, 3Amino-5-fluoro-6-(6-isobutoxy-pyrazin-2-yl)-pyridine-2-carboxylic acid (3-amino-3,4,5,6-tetrahydro-2H-[1,4′]bipyridinyl-3′-yl)-amide]	< 1000	< 1000	< 1000	–

Second part, the compound after the results:

IC50 (Pim3 kinase) [nM]	IC50 (Pim1 kinase; [1]) [nM]	IC50 (Pim2 kinase) [nM]	IC50 (Pim1 kinase) [nM]	SMILES
< 1000	< 1000	< 1000	–	Nc1ccc(-c2ncccc2N)nc1C(=O)Nc1cnccc1N1CCC[C@H](N)C1 [Example 716, 5,3′-Diamino-[2,2′]bipyridinyl-6-carboxylic acid (3-amino-3,4,5,6-tetrahydro-2H-[1,4′]bi-pyridinyl-3′-yl)-amide]
< 1000	< 1000	< 1000	–	CCc1ccnc(-c2ccc(N)c(C(=O)Nc3cnccc3N3CCC[C@H](N)C3)n2)c1 [Example 717, 5-Amino-4′-ethyl-[2,2′]bi-pyridinyl-6-carboxylic acid (3-amino-3,4,5,6-tetrahydro-2H-[1,4′]bipyridinyl-3′-yl)-amide]
< 1000	< 1000	< 1000	–	Nc1ccc(-c2ncccc2Cl)nc1C(=O)Nc1cnccc1N1CCC[C@H](N)C1 [Example 719, 5-Amino-3′-chloro-[2,2′]bi-pyridinyl-6-carboxylic acid (3-amino-3,4,5,6-tetrahydro-2H-[1,4′]bipyridinyl-3′-yl)-amide]
< 1000	< 1000	< 1000	–	COc1cncc(-c2ccc(N)c(C(=O)Nc3cnccc3N3CCC[C@H](N)C3)n2)n1 [Example 722, 3-Amino-6-(6-methoxy-pyrazin-2-yl)-pyridine-2-carboxylic acid (3-amino-3,4,5,6-tetrahydro-2H-[1,4′]bipyridinyl-3′-yl)-amide]
< 1000	< 1000	< 1000	–	CCOc1cccc(-c2ccc(N)c(C(=O)Nc3cnccc3N3CCC[C@H](N)C3)n2)n1 [Example 723, 5-Amino-6′-ethoxy-[2,2′]bi-pyridinyl-6-carboxylic acid (3-amino-3,4,5,6-tetrahydro-2H-[1,4′]bipyridinyl-3′-yl)-amide]
< 1000	< 1000	< 1000	–	Nc1ccc(-c2ccc(F)cn2)nc1C(=O)Nc1cnccc1N1CCC[C@H](N)C1 [Example 727, 5-Amino-5′-fluoro-[2,2′]bi-pyridinyl-6-carboxylic acid (3-amino-3,4,5,6-tetrahydro-2H-[1,4′]bipyridinyl-3′-yl)-amide]
< 1000	< 1000	< 1000	–	CC(C)NC(=O)c1ccc(F)c(-c2ccc(N)c(C(=O)Nc3cnccc3N3CC[C@@H](O)[C@H](N)C3)n2)c1F [Example 732, 3-Amino-6-(2,6-difluoro-3-isopropylcarbamoyl-phenyl)-pyridine-2-carboxylic acid (3-amino-4-hydroxy-3,4,5,6-tetra-hydro-2H-[1,4′]bipyridinyl-3′-yl)-amide]
< 1000	< 1000	< 1000	–	CC(C)NC(=O)c1ccc(F)c(-c2ccc(N)c(C(=O)Nc3cnccc3N3CC[C@@H](F)[C@H](N)C3)n2)c1F [Example 733, 3-Amino-6-(2,6-difluoro-3-isopropylcarbamoyl-phenyl)-pyridine-2-carboxylic acid (3-amino-4-fluoro-3,4,5,6-tetra-hydro-2H-[1,4′]bipyridinyl-3′-yl)-amide]
< 1000	< 1000	< 1000	–	Nc1ccc(-c2ncccc2F)nc1C(=O)Nc1cnccc1N1CCC(O)C(N)C1 (stereo not drawn) [Example 735, 5-Amino-3′-fluoro-[2,2′]bi-pyridinyl-6-carboxylic acid (3-amino-4-hydroxy-3,4,5,6-tetra-hydro-2H-[1,4′]bipyridinyl-3′-yl)-amide]
< 1000	< 1000	< 1000	–	Cc1ccnc(-c2nc(C(=O)Nc3cnccc3N3CCC[C@H](N)C3)c(N)cc2F)c1F [Example 737, 5-Amino-3,3′-difluoro-4′-methyl-[2,2′]bipyridinyl-6-carboxylic acid (3-amino-3,4,5,6-tetrahydro-2H-[1,4′]bi-pyridinyl-3′-yl)-amide]
< 1000	< 1000	< 1000	–	CC(C)Oc1cncc(-c2nc(C(=O)Nc3cnccc3N3CCC[C@H](N)C3)c(N)cc2F)n1 [Example 739, 3-Amino-5-fluoro-6-(6-isopropoxy-pyrazin-2-yl)-pyridine-2-carboxylic acid (3-amino-3,4,5,6-tetrahydro-2H-[1,4′]bipyridinyl-3′-yl)-amide]
< 1000	< 1000	< 1000	–	CCOc1cncc(-c2nc(C(=O)Nc3cnccc3N3CCC[C@H](N)C3)c(N)cc2F)n1 [Example 740, 3-Amino-6-(6-ethoxy-pyrazin-2-yl)-5-fluoro-pyridine-2-carboxylic acid (3-amino-3,4,5,6-tetrahydro-2H-[1,4′]bi-pyridinyl-3′-yl)-amide]

— patent publication US20140249135A1, “PIM KINASE INHIBITORS AND METHODS OF THEIR USE” (NOVARTIS AG, priority 2007, published 2014)
